{
  "source": "paper PMC13120037",
  "about": "(2026)",
  "key": {"[1]": {"system": "Seq78-4 (DNA, aptamer) GGGAGCTCAGAATAAACGCTCAATTTTCGCTGGCTAGTCAGTTTTCTCGTCGTGTGATTTCGACATGAGGCCCGGATC", "experiment": "magnetic-bead strand release, supernatant absorbance (Nanodrop)", "conditions": "25 °C, 60 min; 20 μM α-amanitin; capture strand Capture-am-biotin displaced; Langmuir single-point calculation, not fitted"}, "[2]": {"system": "Seq78-4 (DNA, aptamer) GGGAGCTCAGAATAAACGCTCAATTTTCGCTGGCTAGTCAGTTTTCTCGTCGTGTGATTTCGACATGAGGCCCGGATC", "experiment": "AuNP colorimetric assay (A520)", "conditions": "Na+ (NaCl 40 mM final, added after binding); room temperature, 30 min; 1 μg/mL α-amanitin, aptamer 0-1600 nM; 35 or 78 nt form not stated"}, "[3]": {"system": "Seq78-2 (DNA, aptamer) GGGAGCTCAGAATAAACGCTCAAGCACGCGTCGTCTTCCTGCGCTTCTCCCCGCATCATTCGACATGAGGCCCGGATC", "experiment": "magnetic-bead strand release, supernatant absorbance (Nanodrop)", "conditions": "25 °C, 60 min; 20 μM α-amanitin; capture strand Capture-am-biotin displaced; Langmuir single-point calculation, not fitted"}, "[4]": {"system": "Seq78-7 (DNA, aptamer) GGGAGCTCAGAATAAACGCTCAAGTTCCTCTATTCTAGTTATGCGCTACGTACGCTAGTTCGACATGAGGCCCGGATC", "experiment": "magnetic-bead strand release, supernatant absorbance (Nanodrop)", "conditions": "25 °C, 60 min; 20 μM α-amanitin; capture strand Capture-am-biotin displaced; Langmuir single-point calculation, not fitted"}, "[5]": {"system": "Seq78-2 (DNA, aptamer) GGGAGCTCAGAATAAACGCTCAAGCACGCGTCGTCTTCCTGCGCTTCTCCCCGCATCATTCGACATGAGGCCCGGATC", "experiment": "AuNP colorimetric assay (A520)", "conditions": "Na+ (NaCl 40 mM final, added after binding); room temperature, 30 min; 1 μg/mL α-amanitin, aptamer 0-1600 nM; 35 or 78 nt form not stated"}, "[6]": {"system": "Seq78-9 (DNA, aptamer) GGGAGCTCAGAATAAACGCTCAACTTTTCTGGTTACTCTCGTTTGTTTGATGTTACTTTTCGACATGAGGCCCGGATC", "experiment": "magnetic-bead strand release, supernatant absorbance (Nanodrop)", "conditions": "25 °C, 60 min; 20 μM α-amanitin; capture strand Capture-am-biotin displaced; Langmuir single-point calculation, not fitted"}, "[7]": {"system": "Seq78-9 (DNA, aptamer) GGGAGCTCAGAATAAACGCTCAACTTTTCTGGTTACTCTCGTTTGTTTGATGTTACTTTTCGACATGAGGCCCGGATC", "experiment": "AuNP colorimetric assay (A520)", "conditions": "Na+ (NaCl 40 mM final, added after binding); room temperature, 30 min; 1 μg/mL α-amanitin, aptamer 0-1600 nM; 35 or 78 nt form not stated"}, "[8]": {"system": "Seq78-7 (DNA, aptamer) GGGAGCTCAGAATAAACGCTCAAGTTCCTCTATTCTAGTTATGCGCTACGTACGCTAGTTCGACATGAGGCCCGGATC", "experiment": "AuNP colorimetric assay (A520)", "conditions": "Na+ (NaCl 40 mM final, added after binding); room temperature, 30 min; 1 μg/mL α-amanitin, aptamer 0-1600 nM; 35 or 78 nt form not stated"}},
  "data": [
    {"smiles": "CC[C@H](C)[C@@H]1NC(=O)CNC(=O)[C@@H]2Cc3c([nH]c4cc(O)ccc34)[S@](=O)C[C@H](NC(=O)CNC1=O)C(=O)N[C@@H](CC(N)=O)C(=O)N1C[C@H](O)C[C@H]1C(=O)N[C@@H]([C@@H](C)[C@@H](O)CO)C(=O)N2", "values": [
      {"measurement": "Kd", "setting": "[1]", "result": "57.80 ± 1.001", "unit": "nM"},
      {"measurement": "Kd", "setting": "[2]", "result": "60 ± 3", "unit": "nM"},
      {"measurement": "Kd", "setting": "[3]", "result": "850 ± 45", "unit": "nM"},
      {"measurement": "Kd", "setting": "[4]", "result": "256 ± 5", "unit": "nM"},
      {"measurement": "Kd", "setting": "[5]", "result": "820 ± 5", "unit": "nM"},
      {"measurement": "Kd", "setting": "[6]", "result": "910 ± 31", "unit": "nM"},
      {"measurement": "Kd", "setting": "[7]", "result": "881 ± 6", "unit": "nM"},
      {"measurement": "Kd", "setting": "[8]", "result": "216 ± 3", "unit": "nM"}
    ]}
  ]
}
